Source: patent publication US9051581B2, “Defense peptides against fungal infection and method of their use” (The Curators of the University of Missouri, priority 2010, dated 2015)

Columns and labels:
[1] = tested on: P. pachyrhizi urediniospores; assay: In vitro inhibition of urediniospore germ tube growth by phage-display peptide clones (initial assessment, repeated trials); type: cell-based, Phakopsora pachyrhizi; settings: inhibition = 50% or greater germ tube inhibition after 8 h incubation; 10^13 virions ml^−1; field-collected urediniospores
Procedure: Representative, affinity-selected, phage-display peptide clones were initially assessed in vitro for the ability to inhibit urediniospore germ tube growth. Two-hundred fifty phage clones, randomly chosen from the final selection round, were amplified by E. coli infection, twice purified using PEG-precipitation, and re-suspended in sterile deionized water. Phage concentrations were calculated from UV absorbance measurements as virions μl^−1 (2).
A 25-μl water droplet containing ≈300 non-germinated urediniospores collected from soybean leaves in Florida was incubated on a microscope slide in the presence of a phage clone at a concentration equivalent to 10^13 virions ml^−1. […] Urediniospores were visualized using an Olympus Stereo Zoom Microscope (model SZH; Olympus Optical Co., LTD, Tokyo, Japan) at 50× magnification under transmitted light. Images of germinating urediniospores were captured in random microscope fields with a Spot Insight Color digital camera (Diagnostic Instruments, Inc., Sterling Heights, Mich.). Images were manipulated for viewing using Spot imaging software (version 4.0.3) set up with auto exposure to provide contrast of developing germ tubes against a green background. Comparative germination was assessed in three separate experiments. Phage clones that induced greater than 50% reduction in germ tube length (by visual estimation) compared to growth in water were evaluated in seven additional experiments.

[2] = tested on: Phakopsora pachyrhizi urediniospores; assay: In vitro inhibition of urediniospore germ tube growth by ZmCKX1-peptides; type: cell-based; settings: ZmCKX1 scaffold-display format
Procedure: Purified ZmCKX1-Sp2 and ZmCKX1-Sp39 peptides were assessed in vitro for the ability to inhibit urediniospore germination. A 25-μl water droplet containing 300 freshly harvested MOS-2008 urediniospores was incubated on a glass slide in the presence of either ZmCKX1-Sp2 or ZmCKX1-Sp39. Control treatments included urediniospores incubated in water or in the presence of ZmCKX1 alone. Germ tube growth was visualized over time and quantified by image capture and analyses as described previously.

[3] = tested on: Phakopsora pachyrhizi urediniospores; assay: Effect of phage-display peptide concentration on urediniospore germ tube elongation in vitro; type: cell-based; settings: for effective peptide concentration equivalent at maximal inhibition, phage-display format: five peptide copies per M13 virion at ≈10^13 virions ml^−1
Procedure: The bioactivities of two inhibitory phage-display peptide clones, M13-Sp2 and M13-Sp39, identified in initial assessments were estimated over a range of concentrations including 0.5, 1.0, and 1.5×10^13 virions ml^−1. As before, a 25-μl water droplet containing ≈300 urediniospores was incubated at 22° C. (4) on a microscope slide in the presence of M13-Sp2 or M13-Sp39 at each concentration. Urediniospores in these and all subsequent experiments were derived from the Missouri population, MOS-2008. Control treatments included urediniospores incubated either in water or an equivalent concentration of phage from an unselected library. Spore germination and germ tube growth were visualized over time and quantified by image capture and analyses using MetaMorph software (Version 6.2r6, Universal Imaging, Downington, Pa.). Germ tube length was measured using a line scan function based on conversion of image pixels to length. Germ tube length was averaged from 50 randomly selected germinated urediniospores in each image and across four experimental replicates per treatment.

Sequence	Frequency of germ tube inhibition over 10 trials [1]	concentration of maximum germ tube inhibition, displayed on ZmCKX1 scaffold [2]	effective peptide concentration equivalent at maximal inhibition, phage-display format [3]	concentration of maximal inhibition of germ tube elongation, phage-display format [3]
ASTIGNLMPGHS (Random peptide insert) [Sp14, 12-mer phage-display selected peptide]	5			
DHIRISTSYKSP (Random peptide insert) [Sp51, 12-mer phage-display selected peptide]	3			
DRFTSDLRAPDS (Random peptide insert) [Sp61, 12-mer phage-display selected peptide]	3			
FDPHEPTNTRSP (Random peptide insert) [Sp15, 12-mer phage-display selected peptide]	6			
LTKEPATGRAML (Random peptide insert) [Sp18, 12-mer phage-display selected peptide]	6			
MLESHAWPPRAI (Random peptide insert) [Sp2]	8	115 µM	10 nM	≈ 10^13 virions ml^−1
STVASLGKPTKI (Random peptide insert) [Sp8, 12-mer phage-display selected peptide]	4			
TFDRHILDTRGS (Random peptide insert) [Sp6, 12-mer phage-display selected peptide]	3			
TPTRSLDSPHNM (Random peptide insert) [Sp59, 12-mer phage-display selected peptide]	4			
YISPLPNAATIS (Random peptide insert) [Sp5, 12-mer phage-display selected peptide]	3			
YNKPSFQDHSVI (Random peptide insert) [Sp39]	7	115 µM	10 nM	≈ 10^13 virions ml^−1
